{"source": "paper PMC2876208", "about": "(Cancer, 2010)", "key": {"[1]": {"test_system": "unmutated Bcr-Abl", "conditions": "cited from earlier work"}, "[2]": {"test_system": "Ph-positive CML or ALL", "test": "Phase 1 study: cytogenetic and hematologic response", "type": "in vivo, human"}, "[3]": {"target": "other Src-family member kinases", "conditions": "cited from earlier work"}, "[4]": {"conditions": "cited from earlier work"}, "[5]": {"target": "Lyn kinase", "conditions": "cited from earlier work"}, "[6]": {"test_system": "Bcr-Abl F317V", "conditions": "cited from earlier work"}, "[7]": {"test": "Phase 1 study: pharmacokinetics in patients", "type": "in vivo, human", "conditions": "for half-life: Mean half-life"}, "[8]": {"conditions": "30 mg/kg dose level, 4-week; ref data on file, 24; cited from earlier work"}, "[9]": {"test_system": "Bcr-Abl F317L", "conditions": "cited from earlier work"}, "[10]": {"test": "Phase 1 dose-escalation study: safety, adverse events", "type": "in vivo"}, "[11]": {"test_system": "CML", "conditions": "newly diagnosed patients with CML-CP; cited from earlier work"}}, "note": "Where a name gives a salt, the structure may show the parent alone.", "data": [{"smiles": "Cc1ccc(NC(=O)c2ccc(CN3CC[C@H](N(C)C)C3)c(C(F)(F)F)c2)cc1Nc1nccc(-c2cncnc2)n1", "note": "[INNO-406]", "values": [{"measurement": "Inhibition of autophosphorylation relative to imatinib", "setting": "[1]", "value": "more potently inhibited"}, {"measurement": "Minimal-Minor Cytogenetic Response", "setting": "[2]; 60 mg QD, N = 3", "value": "1 (33) n (%)"}, {"measurement": "Complete Cytogenetic Response", "setting": "[2]; 120 mg BID, N = 6", "value": "1 (17) n (%)"}, {"measurement": "Complete Cytogenetic Response", "setting": "[2]; 120 mg QD, N = 6", "value": "1 (17) n (%)"}, {"measurement": "Complete Cytogenetic Response", "setting": "[2]; 240 mg BID, N = 17", "value": "1 (6) n (%)"}, {"measurement": "Partial Cytogenetic Response", "setting": "[2]; 240 mg BID, N = 17", "value": "2 (12) n (%)"}, {"measurement": "Minimal-Minor Cytogenetic Response", "setting": "[2]; 360 mg BID, N = 7", "value": "1 (14) n (%)"}, {"measurement": "Partial Cytogenetic Response", "setting": "[2]; 480 mg BID, N = 5", "value": "1 (20) n (%)"}, {"measurement": "Response in patients with T315I mutations", "setting": "[2]; 4 patients with T315I mutations", "value": "None"}, {"measurement": "Complete Cytogenetic Response", "setting": "[2]; Total, all doses, N = 56", "value": "3 (5) n (%)"}, {"measurement": "Minimal-Minor Cytogenetic Response", "setting": "[2]; Total, all doses, N = 56", "value": "2 (4) n (%)"}, {"measurement": "Partial Cytogenetic Response", "setting": "[2]; Total, all doses, N = 56", "value": "3 (5) n (%)"}, {"measurement": "Complete and partial hematologic responses", "setting": "[2]; all doses", "value": 3, "unit": "patients"}, {"measurement": "Major cytogenetic response rate", "setting": "[2]; all patients enrolled (6 of 56 patients)", "value": 11, "unit": "%"}, {"measurement": "Major cytogenetic responses", "setting": "[2]; patients treated with doses of 240 mg BID or greater", "value": 4}, {"measurement": "Responses", "setting": "[2]; patients with CML-AP, CML-BP, or Ph-positive ALL", "value": "No responses"}, {"measurement": "Major cytogenetic response rate", "setting": "[2]; patients with CML-CP (6 of 31 patients)", "value": 19, "unit": "%"}, {"measurement": "Major cytogenetic responses", "setting": "[2]; patients with CML-CP, all doses", "value": 6, "unit": "patients"}, {"measurement": "Kinase activity", "setting": "[3]", "value": "no or limited activity"}, {"measurement": "In vivo potency relative to imatinib", "setting": "[4]", "value": "at least 10 times"}, {"measurement": "Kinase activity", "setting": "[5]", "value": "specific Lyn kinase activity"}, {"measurement": "Sensitivity of mutation in vitro", "setting": "[6]", "value": "sensitive"}, {"measurement": "Mean time to achieve peak concentration", "setting": "[7]; 240 mg BID cohort, SD = 0.5", "value": 1.3, "unit": "h"}, {"measurement": "Mean (SD) accumulation factor", "setting": "[7]; BID dosing", "value": "2.73 (4.96)"}, {"measurement": "Accumulation", "setting": "[7]; day 15, 360 and 480 mg BID cohorts", "value": "accumulation of INNO-406 was observed"}, {"measurement": "Dose proportionality of Cmax and AUC", "setting": "[7]; entire study population, for AUC not demonstrable with BID dosing", "value": "dose proportional"}, {"measurement": "Cmax", "setting": "[7]; human, in vivo, oral, 240 mg", "value": 487, "unit": "ng/mL"}, {"measurement": "half-life", "setting": "[7]; human, in vivo, oral, BID dosing, day 1, SD 0.817", "value": 1.99, "unit": "h"}, {"measurement": "half-life", "setting": "[7]; human, in vivo, oral, BID dosing, day 15, SD 0.751", "value": 2.28, "unit": "h"}, {"measurement": "Deaths", "setting": "[8]", "value": "no deaths occurred"}, {"measurement": "Sensitivity of mutation in vitro", "setting": "[9]", "value": "sensitive"}, {"measurement": "Adverse events, NCI category infection", "setting": "[10]; % of patients, N = 56", "value": 33.9, "unit": "%"}, {"measurement": "Deaths since beginning treatment", "setting": "[10]; all related to leukemia progression", "value": "Five"}, {"measurement": "Adverse events, NCI category blood/bone marrow", "setting": "[10]; human, in vivo", "value": 25.0, "unit": "%"}, {"measurement": "Adverse events, NCI category cardiac general", "setting": "[10]; human, in vivo", "value": 12.5, "unit": "%"}, {"measurement": "Adverse events, NCI category constitutional symptoms", "setting": "[10]; human, in vivo", "value": 48.2, "unit": "%"}, {"measurement": "Adverse events, NCI category dermatology/skin", "setting": "[10]; human, in vivo", "value": 28.6, "unit": "%"}, {"measurement": "Adverse events, NCI category gastrointestinal", "setting": "[10]; human, in vivo", "value": 64.3, "unit": "%"}, {"measurement": "Adverse events, NCI category hemorrhage/bleeding", "setting": "[10]; human, in vivo", "value": 10.7, "unit": "%"}, {"measurement": "Adverse events, NCI category lymphatics", "setting": "[10]; human, in vivo", "value": 25.0, "unit": "%"}, {"measurement": "Adverse events, NCI category metabolic/laboratory", "setting": "[10]; human, in vivo", "value": 73.2, "unit": "%"}, {"measurement": "Adverse events, NCI category musculoskeletal/soft tissue", "setting": "[10]; human, in vivo", "value": 10.7, "unit": "%"}, {"measurement": "Adverse events, NCI category neurology", "setting": "[10]; human, in vivo", "value": 23.2, "unit": "%"}, {"measurement": "Adverse events, NCI category pain", "setting": "[10]; human, in vivo", "value": 58.9, "unit": "%"}, {"measurement": "Adverse events, NCI category pulmonary/upper respiratory", "setting": "[10]; human, in vivo", "value": 17.9, "unit": "%"}, {"measurement": "Drug-related acute renal failure", "setting": "[10]; human, in vivo", "value": "2 (4) No. (%)"}, {"measurement": "Drug-related elevated creatinine", "setting": "[10]; human, in vivo", "value": "1 (2) No. (%)"}, {"measurement": "Drug-related hypertension", "setting": "[10]; human, in vivo", "value": "1 (2) No. (%)"}, {"measurement": "Drug-related hyperuricemia", "setting": "[10]; human, in vivo", "value": "1 (2) No. (%)"}, {"measurement": "Drug-related increased ALT", "setting": "[10]; human, in vivo", "value": "9 (16) No. (%)"}, {"measurement": "Drug-related increased GGT", "setting": "[10]; human, in vivo", "value": "2 (4) No. (%)"}, {"measurement": "Drug-related increased bilirubin", "setting": "[10]; human, in vivo", "value": "2 (4) No. (%)"}, {"measurement": "Drug-related intrahepatic cholestasis", "setting": "[10]; human, in vivo", "value": "1 (2) No. (%)"}, {"measurement": "Drug-related prolonged QTc interval", "setting": "[10]; human, in vivo", "value": "1 (2) No. (%)"}, {"measurement": "Drug-related thrombocytopenia", "setting": "[10]; human, in vivo", "value": "1 (2) No. (%)"}, {"measurement": "Grade 3 thrombocytopenia, drug- and non-drug-related", "setting": "[10]; human, in vivo", "value": 2, "unit": "patients"}, {"measurement": "Grade 4 thrombocytopenia, drug- and non-drug-related", "setting": "[10]; human, in vivo", "value": 3, "unit": "patients"}, {"measurement": "QTc >500 msec", "setting": "[10]; human, in vivo", "value": 1, "unit": "patient"}, {"measurement": "QTcB increased to grade 2", "setting": "[10]; human, in vivo", "value": 4, "unit": "patients"}, {"measurement": "QTcF increased to grade 2", "setting": "[10]; human, in vivo", "value": 1, "unit": "patient"}, {"measurement": "Pleural or pericardial effusions", "setting": "[10]; in vivo", "value": "No cases"}, {"measurement": "Recommended phase 2 dose based on DLT and MTD", "setting": "[10]; orally BID", "value": 240, "unit": "mg"}]}, {"smiles": "Cc1ccc(NC(=O)c2ccc(CN3CCN(C)CC3)cc2)cc1Nc1nccc(-c2cccnc2)n1", "note": "[imatinib, imatinib mesylate]", "values": [{"measurement": "Estimated 5 to 7-year survival rates", "setting": "[11]", "value": "over 90%"}]}]}
